Measurements from patent US20240424115A1, “LONG-ACTING INTERLEUKIN-15 RECEPTOR AGONISTS AND RELATED IMMUNOTHERAPEUTIC COMPOSITIONS AND METHODS” (Nektar Therapeutics, priority 2017, published 2024).

What was measured:
CD4, CD8, and NK cells = experiment: In vivo IL-15 signaling (STAT5 phosphorylation in lymphocytes) in mice
Excerpt: Conventional approaches, such as those involving radiolabeling a compound, administering the compound in vivo, and determining its clearance, can be used to assess whether a compound proposed to be a long-acting, IL-15 R agonist is “long-acting” (i.e., has a clearance that is longer than that of IL-15 administered in the same in vivo system). For the purposes herein, the long acting nature of a long-acting IL-15 R agonist may be, and is typically determined using flow cytometry to measure STAT5 phosphorylation in lymphocytes at various time points after administration of the agonist to be evaluated in mice. As a reference, the signal is lost by around 24 hours with IL-15, but is sustained for a period greater than that for a long-acting IL-15 agonist.
Mice were dosed as described in Example 6 above to assess in-vivo signaling as assessed by degree of STAT5 phosphorylation. Degree of STAT5 phosphorylation in various lymphocytes (CD4, CD8, and NK cells) was assessed by staining whole blood for leukocyte surface markers and pSTAT5, followed by measurement by flow cytometry. Results are shown in FIGS. 8A and 8 B for IL-15 and for Conjugate 2, respectively.
[PK methods previously described herein].
STAT5 phosphorylation in CD4 T cells was determined by using a CD3+CD4+CD8-pSTAT5+ marker combination. FIG. 43 is a plot of pSTAT5 phosphorylation percent positivity within CD4 T cells over time (at 0.25, 1, 6, 24, 48, 72, 96 and 120 hours post administration) at a dose of 0.03 mg/kg (blue, solid squares) or 0.3 mg/kg (orange, solid circles). The vehicle over time (black) and pre-dose (open circles) levels are also shown.

CTLL-2 cells = experiment: Potency assay based on STAT5 phosphorylation in CTLL-2 cells; type: cell-based, murine; conditions: for EC50 (ng/mL) CTLL-2 pSTAT5: Table 2B
Procedure: In the phospho-STAT5 assay following receptor binding, downstream cell signaling can then activate Signal Transducer and Activator of Transcription 5 (STAT5) through phosphorylation to promote gene expression to induce cell proliferation. The activation of phosho-STAT5 is measured in CTLL-2 cells, a murine T lymphocyte cell line, using the phospho-STAT5/total STAT5 multiplexed assay (Meso Scale Discovery, MD) in response to sample and reference treatment for ˜10 minutes.
One day prior to the assay, CTLL-2 cells were split into fresh growth medium [RPMI 1640 supplemented with 10% FBS, 10% T-cell culture supplement (catalog #354115, Corning, Inc., Tewksbury, MA), 2 mM L-glutamate, and 1 mM sodium pyruvate]. On the day of assay, cells were pre-incubated in assay medium (RPMI 1640 supplemented with 1% FBS, 2 mM L-glutamate, and 1 mM sodium pyruvate) for at least four hours, and then plated in assay medium in a 96-well plate at 50,000 cells/well. Dilutions of the test article were prepared in an appropriate buffer immediately prior to assay. Stimulation of CTLL-2 cells was initiated by the transfer of 25X test article solutions to triplicate wells containing CTLL-2 cells. Plates were incubated at 37° C., 5% CO2 for 10 minutes, and the reaction was stopped by cell lysis. Detection of phospho-STAT5 and total STAT5 protein levels in cell lysates was performed using the MSD Phospho (Tyr694)/Total STATa,b Whole Cell Lysate Kit (Meso Scale Discovery, MD).

## IL-15: recombinant human IL-15 from E. coli, SEQ ID NO: 1, non-glycosylated, 12.9 kDa; unconjugated comparator
CD4, CD8, and NK cells; C57BL/6 mice, single i.v. 0.3 mg/kg
  duration of in-vivo STAT5 phosphorylation activity in NK and CD8 cells: extremely short-lived
CD4, CD8, and NK cells; mice, reference
  time by which the STAT5 phosphorylation signal in lymphocytes is lost: around 24 hours
CTLL-2 cells
  EC50 (ng/mL) CTLL-2 pSTAT5: 0.27 ng/mL

## mono-mPEG-SBA40K-IL-15 [Conjugate 1]
CD4, CD8, and NK cells; Balb/c mice, single i.v. 0.03 or 0.3 mg/kg, compared to CD8 and NK cells
  pSTAT5 expression in CD4 T cells: relatively less increase in pSTAT5 expression
CD4, CD8, and NK cells; balb/c mice, single injection 0.03 and 0.3 mg/kg
  pSTAT5 percent positivity within NK cells: induces robust and sustained pSTAT5 signaling in NK cells
CD4, CD8, and NK cells; balb/c mice, single injection 0.03 and 0.3 mg/kg, 120 h
  pSTAT5 percent positivity within CD8 T cells: induces sustained pSTAT5signaling in CD8 T cells
CTLL-2 cells; EC50 CTLL-2 pSTAT5
  reduction in potency when compared to IL-15: two-fold
CTLL-2 cells
  EC50 (ng/mL) CTLL-2 pSTAT5: 0.62 ng/mL
